Legend:
Mus musculus [1] = experiment: Effect on compound 48/80-induced histamine level in ddY mouse peritoneal cavity fluid assessed as histamine release at 10 mg/kg, ip administered 15 mins before compound 48/80 challenge measured after 10 mins by fluorometric assay relative to control; format: functional; conditions: route intraperitoneal
Mus musculus [2] = experiment: Effect on compound 48/80-induced histamine level in ddY mouse peritoneal cavity fluid assessed as histamine release at 25 mg/kg, ip administered 15 mins before compound 48/80 challenge measured after 10 mins by fluorometric assay relative to control; format: functional; conditions: route intraperitoneal

| SMILES | Activity (Mus musculus [1]) | Activity (Mus musculus [2]) |
| --- | --- | --- |
| COc1c2ccoc2c(OC[C@@H](OC(C)=O)C(C)(C)O)c2oc(=O)ccc12 | 93.2% | 151% |
| COc1c2ccoc2cc2oc(=O)ccc12 [BERGAPTEN] | 108.2% | 55.4% |
| COc1c2ccoc2c(OC[C@@H](O)C(C)(C)O)c2oc(=O)ccc12 [BYAKANGELICIN] | 105.4% | 57% |
| CC(C)(O)[C@H](O)COc1c2ccoc2cc2oc(=O)ccc12 [OXYPEUCEDANIN HYDRATE] | 114.8% | 69.1% |
| CC1(C)O[C@H]1COc1c2ccoc2cc2oc(=O)ccc12 [OXYPEUCEDANIN] | 142.6% | 136.1% |
| COc1c2ccoc2c(OCC=C(C)C)c2oc(=O)ccc12 [PHELLOPTERIN] | 109.8% | 137.7% |

Reference: ChEMBL document CHEMBL1145678, “Histamine-release effectors from Angelica dahurica var. dahurica root” (1997)
